39 compounds from patent US20250313548A1 (Actio Biosciences, Inc., priority 2023, published 2025) can be followed below.

SMILES strings stand for the structures. Where only a bound is given, the exact number is not on record here.

human, KCNT1, sequence (Q5JUK3 whole entry): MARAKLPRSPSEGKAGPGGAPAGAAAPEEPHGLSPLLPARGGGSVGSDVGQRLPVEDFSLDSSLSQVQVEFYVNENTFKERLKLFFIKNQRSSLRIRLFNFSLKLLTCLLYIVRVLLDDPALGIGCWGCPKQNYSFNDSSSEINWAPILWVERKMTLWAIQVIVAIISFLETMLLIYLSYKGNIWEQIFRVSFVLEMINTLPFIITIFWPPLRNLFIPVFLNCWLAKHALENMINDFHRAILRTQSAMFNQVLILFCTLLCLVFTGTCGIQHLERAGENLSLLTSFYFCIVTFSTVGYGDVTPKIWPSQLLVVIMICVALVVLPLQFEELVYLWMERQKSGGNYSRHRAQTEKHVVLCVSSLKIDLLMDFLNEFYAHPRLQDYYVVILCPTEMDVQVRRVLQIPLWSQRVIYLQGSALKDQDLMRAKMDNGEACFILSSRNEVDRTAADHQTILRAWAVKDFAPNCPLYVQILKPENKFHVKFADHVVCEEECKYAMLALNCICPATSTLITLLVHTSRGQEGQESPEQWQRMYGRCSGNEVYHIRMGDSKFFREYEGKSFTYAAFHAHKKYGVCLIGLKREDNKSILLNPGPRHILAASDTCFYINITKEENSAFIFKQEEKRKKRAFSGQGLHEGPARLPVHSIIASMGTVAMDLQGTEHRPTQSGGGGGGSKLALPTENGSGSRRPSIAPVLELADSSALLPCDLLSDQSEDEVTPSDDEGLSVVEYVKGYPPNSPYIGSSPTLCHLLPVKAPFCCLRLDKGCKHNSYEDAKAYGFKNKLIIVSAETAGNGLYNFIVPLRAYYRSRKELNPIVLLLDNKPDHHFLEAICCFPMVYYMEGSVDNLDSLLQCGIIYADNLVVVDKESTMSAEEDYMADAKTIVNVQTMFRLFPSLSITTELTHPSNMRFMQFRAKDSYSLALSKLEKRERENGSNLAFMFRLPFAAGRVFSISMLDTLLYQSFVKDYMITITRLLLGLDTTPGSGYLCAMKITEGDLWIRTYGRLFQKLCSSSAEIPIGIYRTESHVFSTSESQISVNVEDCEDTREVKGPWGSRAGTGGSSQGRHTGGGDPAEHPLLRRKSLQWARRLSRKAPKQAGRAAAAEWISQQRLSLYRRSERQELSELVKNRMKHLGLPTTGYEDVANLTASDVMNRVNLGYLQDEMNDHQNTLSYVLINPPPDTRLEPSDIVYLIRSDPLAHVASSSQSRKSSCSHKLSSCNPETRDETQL

This test has as its target human, KCNT1 (Homo sapiens (Human), UniProt Q5JUK3). Nature of the test: FLIPR Tl/K Flux Assay. Conditions: HEK293 cells stably expressing human KCNT1; Tl+ flux stimulated with EC80 of agonist Loxapine. The format is cell-based. The procedure, abridged:
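Inhibition values come from a Hill-equation fit of % inhibition versus log concentration, using normalized fluorescence (Fmax/Fmin) over a 160 s read. The read followed stimulation with Tl+ plus EC80 agonist loxapine after 30 min compound pre-incubation at 25 °C. Cells were KCNT1-expressing HEK293, dye-loaded 1 h in pH 7.4 HEPES/HBSS with 5 mM probenecid.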
In general, IC50 refers to the concentration that gives 50% inhibition. Turning to `CN(C(=O)N[C@H]1CCc2nn(-c3ccnc(C(F)(F)F)c3)cc21)c1ccccc1` [Compound I-102a], the IC50 is less than 250 nM.

Take `CC(C)(C)CC(=O)N[C@H]1CCc2nn(-c3ccnc(C(F)(F)F)c3)cc21` [Compound I-103a]: the IC50 was less than 250 nM.

`CC(C)(C)CC(=O)N[C@@H]1CCc2nn(-c3ccnc(C(F)(F)F)c3)cc21` [Compound I-103b] came in with an IC50 greater than 1000 nM.

In turn, `CC(C)(C)C(=O)N[C@H]1CCc2nn(-c3ccnc(C(F)(F)F)c3)cc21` [Compound I-104a] showed an IC50 of 500 to 1000 nM.

`CC(C)(C)C(=O)N[C@@H]1CCc2nn(-c3ccnc(C(F)(F)F)c3)cc21` [Compound I-104b] gave an IC50 greater than 1000 nM.

For `CC(C)(C)OC(=O)N[C@H]1CCc2nn(-c3ccnc(C(F)(F)F)c3)cc21` [Compound I-105a], the IC50 is less than 250 nM.

As for `CC(C)(C)OC(=O)N[C@@H]1CCc2nn(-c3ccnc(C(F)(F)F)c3)cc21` [Compound I-105b], the IC50 is greater than 1000 nM.

`O=C(N[C@H]1CCc2nn(-c3ccnc(C(F)(F)F)c3)cc21)C1CCC(F)(F)CC1` [Compound I-106a] gave an IC50 of less than 250 nM.

For `O=C(N[C@@H]1CCc2nn(-c3ccnc(C(F)(F)F)c3)cc21)C1CCC(F)(F)CC1` [Compound I-106b], the concentration for half-maximal inhibition (IC50) is greater than 1000 nM.

Regarding `O=C(N[C@@H]1CCCCc2nn(-c3ccnc(C(F)(F)F)c3)cc21)c1cc(Cl)cc(C(F)(F)F)c1` [Compound I-109b], the IC50 was greater than 1000 nM.

With `O=C(N[C@H]1CCCCc2nn(-c3ccnc(C4CC4)c3)cc21)c1cc(Cl)cc(C(F)(F)F)c1` [Compound I-110a], the IC50 was less than 250 nM.

`O=C(N[C@H]1CCCn2nc(-c3ccnc(C4CC4)c3)cc21)c1cc(Cl)cc(C(F)(F)F)c1` [Compound I-111a] yielded an IC50 of less than 250 nM.

Compound `N#Cc1cccc(C(=O)N[C@H]2CCCc3nn(-c4ccnc(C(F)(F)F)c4)cc32)c1` [Compound I-112a, (S)-3-Cyano-N-(2-(2-(trifluoromethyl)pyridin-4-yl)-4,5,6,7-tetrahydro-2H-indazol-4-yl)benzamide] displayed a half-inhibitory concentration (IC50) of less than 250 nM.

On to `Cn1nc(C#N)cc1C(=O)N[C@H]1CCCc2nn(-c3ccnc(C(F)(F)F)c3)cc21` [Compound I-113a], for which the IC50 was in the range of 250 to 500 nM.

As for `Cn1nc(C(F)(F)F)cc1C(=O)N[C@H]1CCCc2cnc(-c3ccnc(C(F)(F)F)c3)cc21` [Compound I-116a], the IC50 is less than 250 nM.

As for `Cn1nc(C(F)(F)F)cc1C(=O)N[C@H]1CCCn2nc(-c3cc(C(F)(F)F)cs3)cc21` [Compound I-117a], the half-inhibitory concentration (IC50) was less than 250 nM.

With `Cn1nc(C(F)(F)F)cc1C(=O)N[C@H]1CCc2cnc(-c3ccnc(C(F)(F)F)c3)cc21` [Compound I-118a], the IC50 was less than 250 nM.

Take `O=C(N[C@H]1CCn2nc(-c3ccnc(C(F)(F)F)c3)cc21)c1cc(F)cc(F)c1` [Compound I-120a, (S)-3,5-difluoro-N-(2-(2-(trifluoromethyl)pyridin-4-yl)-5,6-dihydro-4H-pyrrolo[1,2-b]pyrazol-4-yl)benzamide]: the half-maximal inhibitory concentration (IC50) is less than 250 nM.

Turning to `Cn1nc(C(F)(F)F)cc1C(=O)N[C@H]1CCCc2oc(-c3ccnc(C4CC4)c3)nc21` [Compound I-121a, (S)—N-(2-(2-Cyclopropylpyridin-4-yl)-4,5,6,7-tetrahydrobenzo[d]oxazol-4-yl)-1-methyl-3-(trifluoromethyl)-1H-pyrazole-5-carboxamide], the IC50 is less than 250 nM.

`Cc1cnc(C(F)(F)F)cc1-c1cc2n(n1)CCC[C@@H]2NC(=O)c1cc(C(F)(F)F)nn1C` [Compound I-122a, (S)-1-Methyl-N-(2-(5-methyl-2-(trifluoromethyl)pyridin-4-yl)-4,5,6,7-tetrahydropyrazolo[1,5-a]pyridin-4-yl)-3-(trifluoromethyl)-1H-pyrazole-5-carboxamide] returned an IC50 of less than 250 nM.

Regarding `Cn1nc(C(F)(F)F)cc1C(=O)N[C@H]1CCn2nc(-c3ccnc(C(F)(F)F)c3)cc21` [Compound I-123a, (S)-1-methyl-3-(trifluoromethyl)-N-(2-(2-(trifluoromethyl)pyridin-4-yl)-5,6-dihydro-4H-pyrrolo[1,2-b]pyrazol-4-yl)-1H-pyrazole-5-carboxamide], the IC50 is less than 250 nM.

As to `Cn1nc(C(F)(F)F)cc1C(=O)N[C@@H]1CCn2nc(-c3ccnc(C(F)(F)F)c3)cc21` [Compound I-123b, (R)-1-methyl-3-(trifluoromethyl)-N-(2-(2-(trifluoromethyl)pyridin-4-yl)-5,6-dihydro-4H-pyrrolo[1,2-b]pyrazol-4-yl)-1H-pyrazole-5-carboxamide], the concentration for half-maximal inhibition (IC50) fell in the range of 250 to 500 nM.

In turn, `COc1cc(C(=O)N[C@H]2CCCn3nc(-c4ccnc(C(F)(F)F)c4)cc32)cc(OC)n1` [Compound I-124a, (S)-2,6-Dimethoxy-N-(2-(2-(trifluoromethyl)pyridin-4-yl)-4,5,6,7-tetrahydropyrazolo[1,5-a]pyridin-4-yl)isonicotinamide] came in with an IC50 of less than 250 nM.

For the compound `Cc1nc(C(F)(F)F)oc1C(=O)N[C@H]1CCCn2nc(-c3ccnc(C(F)(F)F)c3)cc21` [Compound I-125a, (S)-4-Methyl-2-(trifluoromethyl)-N-(2-(2-(trifluoromethyl)pyridin-4-yl)-4,5,6,7-tetrahydropyrazolo[1,5-a]pyridin-4-yl)oxazole-5-carboxamide], the concentration for half-maximal inhibition (IC50) was less than 250 nM.

`COc1cc(-c2cc3n(n2)CCCC[C@@H]3NC(=O)c2cc(C(F)(F)F)nn2C)ccn1` [Compound I-126a, (S)—N-(2-(2-Methoxypyridin-4-yl)-5,6,7,8-tetrahydro-4H-pyrazolo[1,5-a]azepin-4-yl)-1-methyl-3-(trifluoromethyl)-1H-pyrazole-5-carboxamide] yielded an IC50 of less than 250 nM.

The compound `CCc1cc(F)cc(C(=O)N[C@H]2CCc3nn(-c4ccnc(C(F)(F)F)c4)cc32)c1` [Compound I-127a, (S)-3-Ethyl-5-fluoro-N-(2-(2-(trifluoromethyl)pyridin-4-yl)-2,4,5,6-tetrahydrocyclopenta[c]pyrazol-4-yl)benzamide] gave an IC50 of less than 250 nM.

In turn, `CCc1cc(F)cc(C(=O)N[C@@H]2CCc3nn(-c4ccnc(C(F)(F)F)c4)cc32)c1` [Compound I-127b] yielded an IC50 of less than 250 nM.

`N#Cc1cccc(C(=O)N[C@H]2CCCn3nc(-c4ccnc(C(F)(F)F)c4)cc32)c1` [Compound I-128a, (S)-3-Cyano-N-(2-(2-(trifluoromethyl)pyridin-4-yl)-4,5,6,7-tetrahydropyrazolo[1,5-a]pyridin-4-yl)benzamide]: the IC50 is less than 250 nM.

`O=C(N[C@H]1CCCc2oc(-c3ccnc(C4CC4)c3)nc21)c1cc(C(F)(F)F)n(C(F)F)n1` [Compound I-130a, (S)-N-(2-(2-Cyclopropylpyridin-4-yl)-4,5,6,7-tetrahydrobenzo[d]oxazol-4-yl)-1-(difluoromethyl)-5-(trifluoromethyl)-1H-pyrazole-3-carboxamide]: the IC50 was less than 250 nM.

With `O=C(N[C@H]1CCCc2oc(-c3ccnc(C4CC4)c3)nc21)c1cccc(F)c1` [Compound I-131a, (S)-N-(2-(2-Cyclopropylpyridin-4-yl)-4,5,6,7-tetrahydrobenzo[d]oxazol-4-yl)-3-fluorobenzamide], the 50% inhibitory concentration (IC50) is less than 250 nM.

`O=C(N[C@H]1CCCc2oc(-c3ccnc(C4CC4)c3)nc21)c1cncc(F)c1` [Compound I-132a, (S)-N-(2-(2-Cyclopropylpyridin-4-yl)-4,5,6,7-tetrahydrobenzo[d]oxazol-4-yl)-5-fluoronicotinamide] displayed an IC50 of less than 250 nM.

`O=C(N[C@H]1CCc2nc(-c3ccnc(C(F)(F)F)c3)ccc21)c1cccc(C(F)(F)F)c1` [Compound I-133a, (S)-3-(Trifluoromethyl)-N-(2-(2-(trifluoromethyl)pyridin-4-yl)-6,7-dihydro-5H-cyclopenta[b]pyridin-5-yl)benzamide] came in with an IC50 of less than 250 nM.

In turn, `Cn1nc(C(F)(F)F)cc1C(=O)N[C@H]1CCc2nc(-c3ccnc(C(F)(F)F)c3)ccc21` [Compound I-134a, (S)-1-Methyl-3-(trifluoromethyl)-N-(2-(2-(trifluoromethyl)pyridin-4-yl)-6,7-dihydro-5H-cyclopenta[b]pyridin-5-yl)-1H-pyrazole-5-carboxamide] gave an IC50 of less than 250 nM.

Regarding `COc1cc(-c2nc3c(o2)[C@@H](NC(=O)c2ccnc(OC(F)(F)F)c2)CCC3)ccn1` [Compound I-135a, (S)-N-(2-(2-Methoxypyridin-4-yl)-4,5,6,7-tetrahydrobenzo[d]oxazol-7-yl)-2-(trifluoromethoxy)isonicotinamide], the IC50 was less than 250 nM.

`O=C(N[C@H]1CCCc2oc(-c3ccnc(C4CC4)c3)nc21)c1cncc(C(F)(F)F)c1` [Compound I-137a, (S)-N-(2-(2-Cyclopropylpyridin-4-yl)-4,5,6,7-tetrahydrobenzo[d]oxazol-4-yl)-5-(trifluoromethyl)nicotinamide]: the IC50 is less than 250 nM.

`O=C(N[C@H]1CCn2nc(-c3ccnc(C(F)(F)F)c3)cc21)C12CC(C(F)(F)F)(C1)C2` [Compound I-138a, (S)-3-(Trifluoromethyl)-N-(2-(2-(trifluoromethyl)pyridin-4-yl)-5,6-dihydro-4H-pyrrolo[1,2-b]pyrazol-4-yl)bicyclo[1.1.1]pentane-1-carboxamide] registered an IC50 of less than 250 nM.

Regarding `O=C(N[C@H]1CCn2nc(-c3cc(C(F)(F)F)ncc3F)cc21)c1cccc(C(F)(F)F)c1` [Compound I-139a, (S)-N-(2-(5-Fluoro-2-(trifluoromethyl)pyridin-4-yl)-5,6-dihydro-4H-pyrrolo[1,2-b]pyrazol-4-yl)-3-(trifluoromethyl)benzamide], the IC50 is less than 250 nM.

The compound `Cc1cc(C#N)cc(C(=O)N[C@H]2CCn3nc(-c4cc(C(F)(F)F)ncc4F)cc32)c1` [Compound I-140a] showed an IC50 of less than 250 nM.

The compound `Cc1cnc(C(F)(F)F)cc1-c1cc2n(n1)CC[C@@H]2NC(=O)c1nc(C(F)(F)F)nn1C` [Compound I-141a, (S)-1-Methyl-N-(2-(5-methyl-2-(trifluoromethyl)pyridin-4-yl)-5,6-dihydro-4H-pyrrolo[1,2-b]pyrazol-4-yl)-3-(trifluoromethyl)-1H-1,2,4-triazole-5-carboxamide] gave an IC50 of less than 250 nM.
